We go through eleven compounds from ChEMBL document CHEMBL1201862, “PubChem BioAssay data set” (2004).

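Cells were grown in 96-well plates and exposed to each compound for 48 hours at five concentrations; endpoints were interpolated linearly between bracketing concentrations, or set to the highest concentration if not reached. GI50 marks 50% less growth.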 Activity calls are given as the source filed them. No stated cut-off is given here; in the data, active = GI50 up to about 1.1 µM and inactive = higher.

Experiment in all cases: NCI anticancer screen, dose series, 48 h
In experiment [1] the test system is A549.
In experiment [2] the test system is NCI-H522.
In experiment [3] the test system is EKVX.
Experiment [4] deals with NCI-H23.
The subject of experiment [5] is SNB-19.
Experiment [6] deals with SW-620.
In experiment [7] the test system is HL-60.
The subject of experiment [8] is SF-295.
For experiment [9], the system named is 786-0.
The test system of experiment [10] is NCI-H226.
Experiment [11] concerns TK-10.
In experiment [12] the test system is SK-MEL-2.
Experiment [13] concerns SN12C.
The test system of experiment [14] is HCT-15.
Experiment [15] concerns SR.
For experiment [16], the system named is SK-OV-3.
Experiment [17] concerns HOP-92.
Experiment [18] has as its system MOLT-4.
Experiment [19] has as its system LOX IMVI.

Regarding `Oc1ccc2c(O)cc(-c3ccccc3)nc2c1`, the GI50 in [1] was 23.1 µM (inactive); in experiment [2], 27 µM (inactive); in experiment [3] it was 35.9 µM (inactive); in experiment [4], 36.4 µM (inactive); in experiment [5], 32.4 µM (inactive); in [6], 16.4 µM (inactive). In addition, the GI50 in [7] was 21.5 µM (inactive); in experiment [8] it was 75 µM (inactive); in [9], 31.2 µM (inactive); in experiment [10], 65.3 µM (inactive); in experiment [11] it was 40.7 µM (inactive); in [12], 31.7 µM (inactive). Further, the GI50 in experiment [13] is 24.3 µM (inactive); in experiment [14] it was 15.8 µM; in experiment [15] it was 38.1 µM (inactive); in experiment [16], 28.4 µM (inactive); in [17], 29.3 µM (inactive); in experiment [18], 21.1 µM (inactive). In addition, the GI50 in [19] was 17.5 µM (inactive).
For the compound `CC1(C)OCN(c2ccc(S(N)(=O)=O)cc2)Cn2c1nc1ccccc12`, the GI50 in experiment [1], in experiment [2], in experiment [3], in [4], in experiment [5] and in experiment [6] was > 100 µM (inactive) in each case. Further, the GI50 in experiment [7], in [8], in experiment [9], in experiment [10], in experiment [11] and in experiment [12] was > 100 µM (inactive) throughout. The GI50 is > 100 µM (inactive) in [13]; above 100 µM in [14]; > 100 µM (inactive) in experiment [15]; > 100 µM (inactive) in [16]; > 100 µM (inactive) in experiment [17]; > 100 µM (inactive) in experiment [18]. Further, the GI50 in experiment [19] is > 100 µM (inactive).
For the compound `Nc1ccn(CCNCCn2cnc3nc(N)[nH]c(=O)c32)c(=O)n1`, the GI50 in [1], in [2], in experiment [3], in experiment [4], in experiment [5] and in [6] was > 100 µM (inactive) each time. In addition, the GI50 in experiment [7], in experiment [8], in experiment [9], in experiment [10], in [11] and in experiment [12] was > 100 µM (inactive) in each case. Moreover, the GI50 in experiment [13] is > 100 µM (inactive); in experiment [14], above 100 µM; in experiment [15], > 100 µM (inactive); in experiment [17], > 100 µM (inactive); in experiment [19], > 100 µM (inactive).
For the compound `COc1ccccc1NC(=O)CC(=O)N/N=C/c1ccc(N(CCC#N)S(=O)(=O)c2ccccc2)cc1`, the GI50 in experiment [1], in experiment [2], in experiment [3], in [4], in experiment [5] and in experiment [6] was > 100 µM (inactive) in each case. Moreover, the GI50 in experiment [7], in [8], in experiment [9], in experiment [10], in experiment [11] and in experiment [12] was > 100 µM (inactive) in each case. Further, the GI50 in experiment [14] is above 100 µM; in experiment [15] it was > 100 µM (inactive); in experiment [17] it was > 100 µM (inactive); in experiment [18], > 100 µM (inactive); in [19] it was > 100 µM (inactive).
Regarding `Cc1ccc([N+](=O)[O-])cc1NC(=O)C(=O)Cc1nc2ccc(C(=O)c3ccccc3)cc2nc1O`, the GI50 in [1], in [2], in [3], in experiment [4], in experiment [5] and in experiment [6] was > 100 µM (inactive) throughout. Moreover, the GI50 in experiment [7], in experiment [8], in [9], in experiment [10], in experiment [11] and in experiment [13] was > 100 µM (inactive) in each case. For the same compound, the GI50 in [14] is above 100 µM; in experiment [15], 60 µM (inactive); in experiment [16], > 100 µM (inactive); in [17] it was 42.2 µM (inactive); in [18] it was > 100 µM (inactive); in experiment [19], > 100 µM (inactive).
In the case of `Nn1c(CCCl)nc2c(Br)cc(Br)cc2c1=O`, the GI50 in experiment [1] was 43.7 µM (inactive); in [2], 15.9 µM (inactive); in [3], 29.8 µM (inactive); in experiment [4], 24 µM (inactive); in experiment [5] it was 51.9 µM (inactive); in experiment [6], 20.5 µM (inactive). The GI50 in [7] is 2.77 µM (inactive); in experiment [8], 31.7 µM (inactive); in [9], 27.7 µM (inactive); in [10], 28.5 µM (inactive); in [11] it was 34.3 µM (inactive); in experiment [12] it was 33.1 µM (inactive). Further, the GI50 in [13] is 30.8 µM (inactive); in experiment [14], 22.1 µM; in [15], 20.3 µM (inactive); in [16], 33.1 µM (inactive); in experiment [17] it was 33 µM (inactive); in [18] it was 22.7 µM (inactive). The GI50 in [19] was 25.5 µM (inactive).
Consider `C[n+]1c2n(c3nc(N)[nH]c(=O)c31)C1OC(C2)C(O)C1O` (centres undefined), for which the GI50 in experiment [1], in experiment [2], in experiment [3], in experiment [4], in [5] and in [6] was > 100 µM (inactive) each time. In addition, the GI50 in experiment [7], in experiment [8], in [9], in [10], in [11] and in experiment [12] was > 100 µM (inactive) in each case. For the same compound, the GI50 in experiment [13], in experiment [15], in experiment [16], in experiment [17], in experiment [18] and in experiment [19] was > 100 µM (inactive) each time.
As for `Cc1ccc(S(=O)OC2C3CC4CC(C3)CC2C4)cc1` (centres undefined), the GI50 in [1], in experiment [2], in experiment [3], in [4], in experiment [5] and in experiment [6] was > 100 µM (inactive) each time. Further, the GI50 in experiment [7], in experiment [8], in experiment [9], in [10], in [11] and in [13] was > 100 µM (inactive) in each case. Further, the GI50 in experiment [14] was above 100 µM; in experiment [15], > 100 µM (inactive); in experiment [16] it was > 100 µM (inactive); in experiment [17], > 100 µM (inactive); in experiment [18], > 100 µM (inactive); in [19] it was > 100 µM (inactive).
As for `CN/N=C(\C(=O)Nc1ccc([N+](=O)[O-])cc1[N+](=O)[O-])C1NC(=O)NC1=O` (centres undefined), the GI50 is > 100 µM (inactive) in experiment [1]; > 100 µM (inactive) in experiment [3]; > 100 µM (inactive) in experiment [4]; > 100 µM (inactive) in [5]; 40.3 µM (inactive) in experiment [6]; > 100 µM (inactive) in experiment [7]. Also, the GI50 in [8], in experiment [9], in experiment [10], in [11], in [12] and in experiment [13] was > 100 µM (inactive) each time. The GI50 is above 100 µM in experiment [14]; > 100 µM (inactive) in experiment [15]; > 100 µM (inactive) in experiment [16]; > 100 µM (inactive) in experiment [17]; > 100 µM (inactive) in [18]; 38.1 µM (inactive) in experiment [19].
Take `C=C1C(=O)OC2CC3(C)C=CC(=O)C(=C)C3CC12` (centres undefined): the GI50 is 5.62 µM (inactive) in [1]; 0.47 µM (active) in experiment [2]; 2.77 µM (inactive) in [3]; 1.69 µM (inactive) in experiment [4]; 8.55 µM (inactive) in experiment [5]; 1.04 µM (active) in experiment [6]. The GI50 in experiment [7] was 0.769 µM (active); in [8] it was 13.9 µM (inactive); in [9], 1.76 µM (inactive); in [10] it was 12.1 µM (inactive); in experiment [11], 2.15 µM (inactive); in [12] it was 1.67 µM (inactive). Besides, the GI50 was 1.69 µM (inactive) in experiment [13]; 1.71 µM in experiment [14]; 0.938 µM (active) in experiment [15]; 20.8 µM (inactive) in [16]; 1.91 µM (inactive) in [17]; 1.03 µM (active) in experiment [18]. Further, the GI50 in experiment [19] is 0.516 µM (active).
With `CN(C)c1ccc(C(=C2C=CC(=[N+](C)C)C=C2)c2ccc(N(C)C)cc2)cc1` [GENTIAN VIOLET], the GI50 in experiment [1] was 0.0395 µM (active); in [2], 0.298 µM (active); in experiment [3], 0.368 µM (active); in experiment [4], 0.0594 µM (active); in [5], 0.347 µM (active); in [7], 0.04 µM (active). The GI50 in [8] is 0.0402 µM (active); in experiment [9] it was 0.0923 µM (active); in experiment [10], 0.179 µM (active); in experiment [12], 0.207 µM (active); in experiment [13], 0.21 µM (active); in experiment [14], 0.334 µM. Besides, the GI50 was 0.211 µM (active) in [15]; 0.224 µM (active) in experiment [16]; 0.196 µM (active) in experiment [17]; 0.144 µM (active) in experiment [18]; 0.0379 µM (active) in experiment [19].
